Type in all cases: ADME, organism-based
Holding throughout (conditions): in vivo

The nature of data set [1]: Bioavailability in Sprague-Dawley rat by HPLC-MS/MS analysis.
Data set [2] relates to Plasma. The data set is described as follows: Plasma concentration in monoiodoacetate-induced osteoarthritis rat model at 3 mg/kg, po.
Data set [3] concerns Plasma. In words: Plasma concentration in monoiodoacetate-induced osteoarthritis rat model at 10 mg/kg, po.
The test system of data set [4] is Plasma. The data set is described as follows: Plasma concentration in monoiodoacetate-induced osteoarthritis rat model at 30 mg/kg, po.

A word on the bioavailability: it is dose-corrected exposure relative to a reference, in per cent. A high value points to good availability.

As to `O=C(CN1CCN(c2cccc3c2cnn3-c2ccccc2F)C1=O)N1CCCC1`, the bioavailability in data set [1] stood at 94%.

Turning to `Fc1ccc2c(c1)c(OCCn1ccnc1)nn2-c1ccccc1F`, the bioavailability in data set [1] was 28%.

Take `O=C1CN(c2cccc3c2cnn3-c2ccccc2F)CCN1CC(=O)N1CC[C@H](F)C1`: the bioavailability in data set [1] was 84%.

In data set [1], `O=C1NCCN1CCOc1nn(-c2ccc(F)cc2)c2ccc(F)cc12` came in with a bioavailability of 54%.

For the molecule `O=C(CN1CCN(c2cccc3c2cnn3-c2ccccc2F)C1=O)N1CC[C@H](F)C1`, the bioavailability in data set [1] was found to be 83%. For the same molecule, the Cp with Plasma [2] came to 2700 ng/mL; with Plasma [3], 6800 ng/mL; with Plasma [4] it was 10500 ng/mL.

The molecule `CC(Oc1nn(-c2ccccc2F)c2ccc(F)cc12)C(=O)N1CCOCC1` (configuration not stated) displayed a bioavailability in data set [1] of 27%.

In data set [1], `O=C1NCCN1CCOc1nn(-c2ccccc2F)c2ccc(F)cc12` displayed a bioavailability of 17%. Further, the Cp in the data set with Plasma [2] stood at 50 ng/mL; in the data set with Plasma [3] it was 380 ng/mL; with Plasma [4] it was 1050 ng/mL.

In data set [1], `O=C(COc1nn(-c2ccccc2F)c2ccc(F)cc12)N1CCOCC1` yielded a bioavailability of 22%.

In data set [1], `CC(C)CC(=O)CN1CCN(c2cccc3c2cnn3-c2ccccc2F)C1=O` displayed a bioavailability of 82%.

As to `O=c1[nH]ccn1CCOc1nn(-c2ccccc2F)c2ccc(F)cc12`, in data set [1], the bioavailability was determined as 35%.

The molecule `O=C1NCCN1CCOc1nn(-c2ccc(F)cc2F)c2ccc(F)cc12` yielded a bioavailability in data set [1] of 71%.

Values taken from ChEMBL document CHEMBL3797111, “Substituted Indazoles as Nav1.7 Blockers for the Treatment of Pain” (J Med Chem, 2016).
